Bounds are passed on as bounds.

The subject of the assay is Endogenous Huntingtin Protein (capture with MW1 (expanded polyglutamine) or MAB2166 antibody). Description: Endogenous Huntingtin Protein Assay (ELISA-based Meso Scale Discovery electrochemiluminescence assay). In kind it is cell-based. As to conditions: MSD electrochemiluminescence platform. As for the experimental part: Compounds of Formula (I), Formula (II), or Formula (III) were tested using the Meso Scale Discovery (MSD) Assay provided in International Application No. PCT/US2016/066042, filed on Dec. 11, 2016 and claiming priority to U.S. Provisional Application U.S. 62/265,652 filed on Dec. 10, 2015, the entire contents of which are incorporated herein by reference.
The Endogenous Huntingtin Protein assay used in Example 1 was developed using the ELISA-based MSD electrochemiluminescence assay platform.
Meso Scale Discovery (MSD) 96-well or 384-well plates were coated overnight at 4° C. with MW1 (expanded polyglutamine) or MAB2166 monoclonal antibody (for capture) at a concentration of 1 μg/mL in PBS (30 μL per well). Plates were then washed three times with 300 μL wash buffer (0.05% Tween-20 in PBS) and blocked (100 μL blocking buffer; 5% BSA in PBS) for 4-5 hours at room temperature with rotational shaking and then washed three times with wash buffer.
Samples (25 μL) were transferred to the antibody-coated MSD plate and incubated overnight at 4° C. After removal of the lysates, the plate was washed three times with wash buffer, and 25 μL of #5656S (Cell signaling; rabbit monoclonal) secondary antibody (diluted to 0.25 μg/mL in 0.05% Tween-20 in blocking buffer) was added to each well and incubated with shaking for 1 Hour at room temperature. Following incubation with the secondary antibody, the wells were rinsed with wash buffer after which 25 μL of goat anti-rabbit SULFO TAG secondary detection antibody (required aspect of the MSD system) (diluted to 0.25 μg/mL in 0.05% Tween-20 in blocking buffer) was added to each well and incubated with shaking for 1 hour at room temperature. After rinsing three times with wash buffer, 150 μL of read buffer T with surfactant (MSD) were added to each empty well, and the plate was imaged on a SI 6000 imager (MSD) according to manufacturers' instructions provided for 96- or 384-well plates.
With `CC1(C)C[C@H](Oc2ccc(-c3ncc(-n4nccn4)cc3O)nn2)[C@H](F)C(C)(C)N1` (single isomer, unassigned) [Compound 11, 2-(6-{[(3R,4S)-3-fluoro-2,2,6,6-tetramethylpiperidin-4-yl]oxy}pyridazin-3-yl)-5-(2H-1,2,3-triazol-2-yl)pyridin-3-ol or 2-(6-{[(3S,4R)-3-fluoro-2,2,6,6-tetramethylpiperidin-4-yl]oxy}pyridazin-3-yl)-5-(2H-1,2,3-triazol-2-yl)pyridin-3-ol], the IC50 was at most 100 nM.
In the case of `CC1(C)C[C@H](Oc2ccc(-c3ncc(-c4ncco4)cc3O)nn2)[C@H](F)C(C)(C)N1` (single isomer, unassigned) [Compound 12, 2-(6-{[(3R,4S)-3-fluoro-2,2,6,6-tetramethylpiperidin-4-yl]oxy}pyridazin-3-yl)-5-(1,3-oxazol-2-yl)pyridin-3-ol or 2-(6-{[(3S,4R)-3-fluoro-2,2,6,6-tetramethylpiperidin-4-yl]oxy}pyridazin-3-yl)-5-(1,3-oxazol-2-yl)pyridin-3-ol], the IC50 was at most 100 nM.
With `CC1(C)C[C@H](Oc2ccc(-c3ncc(-c4cn[nH]c4F)cc3O)nn2)[C@H](F)C(C)(C)N1` (single isomer, unassigned) [Compound 22, 5-(5-fluoro-1H-pyrazol-4-yl)-2-(6-{[(3R,4S)-3-fluoro-2,2,6,6-tetramethylpiperidin-4-yl]oxy}pyridazin-3-yl)pyridin-3-ol or 5-(5-fluoro-1H-pyrazol-4-yl)-2-(6-{[(3S,4R)-3-fluoro-2,2,6,6-tetramethylpiperidin-4-yl]oxy}pyridazin-3-yl)pyridin-3-ol] the figure was 100 to 500 nM.
With `Cn1cc2cc(-c3cnc(-c4ccc(O[C@H]5CC(C)(C)NC(C)(C)[C@H]5F)nn4)c(O)c3)cc(C#N)c2n1` (single isomer, unassigned) [Compound 34, 5-[6-(6-{[(3R,4S)-3-fluoro-2,2,6,6-tetramethylpiperidin-4-yl]oxy}pyridazin-3-yl)-5-hydroxypyridin-3-yl]-2-methyl-2H-indazole-7-carbonitrile or 5-[6-(6-{[(3S,4R)-3-fluoro-2,2,6,6-tetramethylpiperidin-4-yl]oxy}pyridazin-3-yl)-5-hydroxypyridin-3-yl]-2-methyl-2H-indazole-7-carbonitrile] the figure was at most 100 nM; with `Cn1cc2cc(-c3cnc(-c4ccc(O[C@H]5CC(C)(C)NC(C)(C)[C@H]5F)nn4)c(O)c3)cc(F)c2n1` (single isomer, unassigned) [Compound 35, 5-(7-fluoro-2-methyl-2H-indazol-5-yl)-2-(6-{[(3R,4S)-3-fluoro-2,2,6,6-tetramethylpiperidin-4-yl]oxy}pyridazin-3-yl)pyridin-3-ol or 5-(7-fluoro-2-methyl-2H-indazol-5-yl)-2-(6-{[(3S,4R)-3-fluoro-2,2,6,6-tetramethylpiperidin-4-yl]oxy}pyridazin-3-yl)pyridin-3-ol], at most 100 nM.
Compound `Cn1ccc(-c2cnc(-c3ccc(O[C@H]4CC(C)(C)NC(C)(C)[C@H]4F)nn3)c(O)c2)cc1=O` (single isomer, unassigned) [Compound 37, 6-(6-{[(3R,4S)-3-fluoro-2,2,6,6-tetramethylpiperidin-4-yl]oxy}pyridazin-3-yl)-5-hydroxy-1′-methyl[3,4′-bipyridin]-2′(1′H)-one or 6-(6-{[(3S,4R)-3-fluoro-2,2,6,6-tetramethylpiperidin-4-yl]oxy}pyridazin-3-yl)-5-hydroxy-1′-methyl[3,4′-bipyridin]-2′(1′H)-one] yielded a half-maximal inhibitory concentration (IC50) of 100 to 500 nM.
Next, `CC1(C)C[C@@H](Oc2ccc(-c3ncc(-c4cn[nH]c4)cc3O)nn2)[C@@H](F)C(C)(C)N1` (single isomer, unassigned) [Compound 39, 2-(6-{[(3S,4R)-3-fluoro-2,2,6,6-tetramethylpiperidin-4-yl]oxy}pyridazin-3-yl)-5-(1H-pyrazol-4-yl)pyridin-3-ol or 2-(6-{[(3S,4R)-3-fluoro-2,2,6,6-tetramethylpiperidin-4-yl]oxy}pyridazin-3-yl)-5-(1H-pyrazol-4-yl)pyridin-3-ol]: at most 100 nM; `CC1(C)C[C@H](Oc2ccc(-c3ncc(-c4cn[nH]c4)cc3O)nn2)[C@H](F)C(C)(C)N1` (single isomer, unassigned) [Compound 51, 2-(6-{[(3R,4S)-3-fluoro-2,2,6,6-tetramethylpiperidin-4-yl]oxy}pyridazin-3-yl)-5-(1H-pyrazol-4-yl)pyridin-3-ol or 2-(6-{[(3S,4R)-3-fluoro-2,2,6,6-tetramethylpiperidin-4-yl]oxy}pyridazin-3-yl)-5-(1H-pyrazol-4-yl)pyridin-3-ol]: at most 100 nM; `CC1(C)CC(Oc2ccc(-c3ncc(-c4cn[nH]c4)cc3O)nn2)CC(C)(C)N1` [Compound 1, 5-(1H-pyrazol-4-yl)-2-{6-[(2,2,6,6-tetramethylpiperidin-4-yl)oxy]pyridazin-3-yl}pyridin-3-ol]: at most 100 nM.
`CN(c1ccc(-c2ncc(-c3cn[nH]c3)cc2O)nn1)C1CC(C)(C)NC(C)(C)C1` [Compound 2, 2-{6-[methyl(2,2,6,6-tetramethylpiperidin-4-yl)amino]pyridazin-3-yl}-5-(1H-pyrazol-4-yl)pyridin-3-ol] came in with a 50% inhibitory concentration (IC50) of at most 100 nM.
With `[2H]C([2H])([2H])n1cc(-c2cnc(-c3ccc(OC4CC(C)(C)NC(C)(C)C4)nn3)c(O)c2)cn1` [Compound 3, 5-[1-(^2H3)methyl-1H-pyrazol-4-yl]-2-{6-[(2,2,6,6-tetramethylpiperidin-4-yl)oxy]pyridazin-3-yl}pyridin-3-ol] the figure was at most 100 nM; with `Cn1ccc(-c2cnc(-c3ccc(OC4CC(C)(C)NC(C)(C)C4)nn3)c(O)c2)n1` [Compound 4, 5-(1-methyl-1H-pyrazol-3-yl)-2-{6-[(2,2,6,6-tetramethylpiperidin-4-yl)oxy]pyridazin-3-yl}pyridin-3-ol], at most 100 nM; with `CC1(C)CC(Oc2ccc(-c3ncc(-n4ccnc4)cc3O)nn2)CC(C)(C)N1` [Compound 5, 5-(1H-imidazol-1-yl)-2-{6-[(2,2,6,6-tetramethylpiperidin-4-yl)oxy]pyridazin-3-yl}pyridin-3-ol], at most 100 nM.
Take `CC1(C)C[C@H](Nc2ccc(-c3ncc(-c4cn[nH]c4)cc3O)nn2)[C@@H](F)C(C)(C)N1` [Compound 8, 2-(6-{[(3R,4S)-3-fluoro-2,2,6,6-tetramethylpiperidin-4-yl]amino}pyridazin-3-yl)-5-(1H-pyrazol-4-yl)pyridin-3-ol]: the half-maximal inhibitory concentration (IC50) is at most 100 nM.
With `CC1(C)CC(Oc2ccc(-c3ncc(-c4ncco4)cc3O)nn2)CC(C)(C)N1` [Compound 10, 5-(1,3-oxazol-2-yl)-2-{6-[(2,2,6,6-tetramethylpiperidin-4-yl)oxy]pyridazin-3-yl}pyridin-3-ol], the IC50 is at most 100 nM.
With `CN(c1ccc(-c2ncc(-c3ccn(C)n3)cc2O)nn1)C1CC(C)(C)NC(C)(C)C1` [Compound 13, 5-(1-methyl-1H-pyrazol-3-yl)-2-{6-[methyl(2,2,6,6-tetramethylpiperidin-4-yl)amino]pyridazin-3-yl}pyridin-3-ol] the figure was at most 100 nM.
Take `CN(c1ccc(-c2ncc(-c3ncco3)cc2O)nn1)C1CC(C)(C)NC(C)(C)C1` [Compound 14, 2-{6-[methyl(2,2,6,6-tetramethylpiperidin-4-yl)amino]pyridazin-3-yl}-5-(1,3-oxazol-2-yl)pyridin-3-ol]: the IC50 was at most 100 nM.
With `CN(c1ccc(-c2ncc(-n3ccnc3)cc2O)nn1)C1CC(C)(C)NC(C)(C)C1` [Compound 15, 5-(1H-imidazol-1-yl)-2-{6-[methyl(2,2,6,6-tetramethylpiperidin-4-yl)amino]pyridazin-3-yl}pyridin-3-ol] the figure was at most 100 nM.
As for `CC1(C)CC(Oc2ccc(-c3ncc(-n4nccn4)cc3O)nn2)CC(C)(C)N1` [Compound 20, 2-{6-[(2,2,6,6-tetramethylpiperidin-4-yl)oxy]pyridazin-3-yl}-5-(2H-1,2,3-triazol-2-yl)pyridin-3-ol], the half-maximal inhibitory concentration (IC50) is at most 100 nM.
`CC1(C)CC(Oc2ccc(-c3ncc(-n4nccn4)cc3O)nn2)CC2(CC2)N1` (stereo not shown) [Compound 21, 2-{6-[(5,5-dimethyl-4-azaspiro[2.5]octan-7-yl)oxy]pyridazin-3-yl}-5-(2H-1,2,3-triazol-2-yl)pyridin-3-ol] returned an IC50 of at most 100 nM.
With `[2H]C([2H])([2H])n1cc(-c2cnc(-c3ccc(N4CC[C@@H](NC(C)(C)C)C4)nn3)c(O)c2)cn1` [Compound 23, 2-{6-[(3R)-3-(tert-butylamino)pyrrolidin-1-yl]pyridazin-3-yl}-5-[1-(^2H3)methyl-1H-pyrazol-4-yl]pyridin-3-ol] the figure was at most 100 nM; with `CC(C)(C)N[C@@H]1CCN(c2ccc(-c3ncc(-n4nccn4)cc3O)nn2)C1` [Compound 24, 2-{6-[(3R)-3-(tert-butylamino)pyrrolidin-1-yl]pyridazin-3-yl}-5-(2H-1,2,3-triazol-2-yl)pyridin-3-ol], at most 100 nM.

As a reminder, the IC50 is the midpoint of a concentration-inhibition curve. Higher therefore signals weaker potency in that assay.

The values are drawn from patent publication US12577226B2, “Compounds for treating Huntington's disease” (PTC THERAPEUTICS, INC., priority 2019, dated 2026).
